# Data published in US20040138311A1, “Medicament containing an effector of the glutathione metabolism together with $g(a)-lipoic acid for treating diabetes mellitus” (priority 2001, published 2004).
# Where a name gives a salt, the structure may show the parent alone.
# Assays:
# Assay type in all cases: cell-based, human
# [1] = system: peritoneal macrophages; test: Degree of differentiation and activation of peritoneal macrophages (CD15, CD11c, CD69, CD71 cytofluorimetry); details: Control = 1.0; after 6 days of incubation; α-lipoic acid 50 μM, ambroxol 10 μM, enalapril 5 μM, captopril 10 μM
# Description: Peritoneal macrophages were isolated from patients during renal replacement therapy using the method described in Example 3 and cultivated in the presence of the combinations of α-lipoic acid and effectors of the glutathione metabolism according to the invention. After 6 days of incubation, the degree of differentiation of the peritoneal macrophages was determined by means of the expression of the cell surface antigens CD15 and CD11c, and the degree of cellular activation was determined using cytofluorimetry by means of the co-expression of the activation antigens CD69 to CD15-positive cells and CD71 to […] cells.
# [2] = system: lymphocytes (peripheral immune cells); test: Membrane-bound thiol expression of thiol-depleted peripheral immune cells (CMTMR flow cytofluorimetry); details: α-lipoic acid 50 μM, captopril 10 μM, combination at the same concentrations
# Description: Peripheral immune cells from healthy donors (n=9) were isolated from the peripheral blood. The major fraction of the resulting total population of mononuclear cells regularly represents lymphocytes with a relative percentage of approximately 90%, depending on the donor. 10% of the mononuclear cells are represented by monocytes. The mononuclear cells obtained were absorbed in special cell culture media and incubated in a gasifying incubation cabinet at 37° C., a relative humidity of 98% and 5% relative air-CO2 content. […] To test the influence of the combinations used according to the invention on the thiol status of thiol-deficient immune cells, these cells were artificially thiol-depleted. This process was carried out using proven methods by cultivation in thiol-deficient media (RPMI 1603). Comparative cultures using complete media (RPMI) 1640) were used to define the best possible normal value under the culture conditions. The expression of membrane-bound thiol groups was also determined using flow cytofluorimetry. In this case, chloromethyltetramethyl rhodamine (CMTMR) was used as thiol conjugate under the conditions of a blocked membrane potential and an inhibited diffusion capacity of the cells. The fluorescence intensity of the fluorochrome molecules bound to the cell membrane is in turn proportional to the number of thiol groups on the cell surface. The results obtained with this experimental investigation of the influence of the combinations according to the invention on the expression of cell membrane bound thiols are presented in FIG. 2 for the combinations of α-lipoic acid and ambroxol (FIG. 2a) and α-lipoic acid and enalapril (FIG. 2b). The following table presents the results for the combination of α-lipoic acid and captopril.
# [3] = system: peritoneal macrophages; test: Degree of differentiation and activation of peritoneal macrophages (CD15, CD11c, CD69, CD71 cytofluorimetry); details: Control = 1.0; after 6 days of incubation; α-lipoic acid 50 μM, ambroxol 10 μM, enalapril 5 μM, captopril 10 μM; remark: listed apart in the source
# [4] = system: peritoneal macrophages; test: Phagocytosis capacity of peritoneal macrophages (cytofluorimetric test with opsonized fluorochrome-marked bacteria); details: treatment time of 6 days
# Description: Peritoneal macrophages were isolated using a method analogous to the method described in Example 3 and cultivated ex vivo. The phagocytosis capacity was determined by a cytofluorimetric test on the single-cell level. The macrophages were thereby co-cultivated with opsonized and fluorochrome-marked bacteria. The number of bacteria absorbed during a defined period was determined quantitatively by means of the fluorescence intensity in the macrophages and was used as a measurement for their phagocytosis capacity. The influence of the combinations used according to the invention on the phagocytosis capacity of the peritoneal macrophages after a treatment time of 6 days is presented in the following table.
# [5] = system: T-lymphocytes; test: Activation markers CD69, CD25, CD71 of PHA-stimulated T-lymphocytes (activation index); details: thiol-deficient cells, 1.0 μg/ml phytohemagglutinin, culture time 72 hours; normal = 1.0
# Description: In the cultivation experiment described with reference to Example 1, human T-lymphocytes were stimulated with 1.0 μg/ml phytohemagglutinin. In a culture time of 72 hours, specific markers of the cellular activation were quantitatively detected using cytofluorimetery by means of monoclonal antibodies. The influence of the combinations used according to the invention on the activation markers CD69 (early activation antigen), CD25 (intermediate activation antigen) and CD71 (late activation antigen) of T-lymphocytes was measured. […] It can thus be concluded that the normalization of the cellular thiol status achieved by the combined use of α-lipoic acid and the respective effectors of the glutathione metabolism is accompanied by a restitution of cell function.
# [6] = system: peritoneal macrophages; test: Membrane thiol expression of peritoneal macrophages from peritoneal dialysis patients; details: α-lipoic acid effect disappeared after 4 days of treatment
# Description: Peritoneal macrophages were isolated from the effluate of peritoneal dialysis of patients with a high degree of renal insufficiency, absorbed in a cell culture medium and incubated in a gasifying incubation cabinet at 37° C., a relative humidity of 98% and 7.5% relative air-CO2 content. To investigate the influence of the combinations used according to the invention on the thiol status of the peritoneal macrophages, individual fractions were treated with α-lipoic acid, the effectors of the glutathione metabolism ambroxol or the ACE inhibitor enalapril and with the combination of α-lipoic acid/ambroxol or α-lipoic acid/enalapril, while an additional fraction was maintained as an untreated control. The cellular thiol status was determined using the measurement methods described in Example 1. […] The membrane expression of thiols was determined on the basis of the median fluorescence intensity (mfi) of the specimen (3000 cells/measurement) after coupling to a chlormethyl-fluorochrome derivative.
# [7] = system: peritoneal macrophages; test: Intracellular thiol expression of peritoneal macrophages from peritoneal dialysis patients; details: time kinetic over 14 days
# Description: Peritoneal macrophages were isolated from the effluate of peritoneal dialysis of patients with a high degree of renal insufficiency, absorbed in a cell culture medium and incubated in a gasifying incubation cabinet at 37° C., a relative humidity of 98% and 7.5% relative air-CO2 content. To investigate the influence of the combinations used according to the invention on the thiol status of the peritoneal macrophages, individual fractions were treated with α-lipoic acid, the effectors of the glutathione metabolism ambroxol or the ACE inhibitor enalapril and with the combination of α-lipoic acid/ambroxol or α-lipoic acid/enalapril, while an additional fraction was maintained as an untreated control. The cellular thiol status was determined using the measurement methods described in Example 1. FIG. 4 illustrates the effect of the combination of α-lipoic acid and ambroxol (FIG. 4a) and α-lipoic acid and enalapril (FIG. 4b) in a time kinetic over 14 days […].
# [8] = system: peritoneal macrophages; test: Stability of membrane-bound thiol expression in peritoneal macrophages in the dialysis model; details: 14 days, high-glucose dialysis solution
# Description: (§1) The combinations of thiol-restored peritoneal macrophages used according to the invention were extracted from this test system after 6 days and cultivated over a period of 14 days in a dialysis model. For this purpose the peritoneal macrophages were adapted to matrices that were coated with collagen IV and placed in contact with conventional high-glucose dialysis solution 3 times a day for 60 minutes each time. In this case, the model was used for the induction of a combined hyperglycemic/osmotic stress. […] The membrane expression of thiol was determined on the basis of the median fluorescence intensity (mfi) of the specimen (3000 cells/measurement) after coupling to a chlormethyl-fuorochrome derivative. […] Here, too, there is a mono-effect of α-lipoic acid, although it lasts only briefly and after approximately 4 days in the dialysis model is only approximately 50% as effective as the combinations. A similar result is apparent in the curves of the membrane-bound thiol expression illustrated in FIG. 7.
# [9] = system: lymphocytes (peripheral immune cells); test: Intracellular thiol expression of thiol-depleted peripheral immune cells (CMFDA flow cytofluorimetry); details: thiol-deficient conditions (1603), 10-20% thiol reduction
# Description: Peripheral immune cells from healthy donors (n=9) were isolated from the peripheral blood. The major fraction of the resulting total population of mononuclear cells regularly represents lymphocytes with a relative percentage of approximately 90%, depending on the donor. 10% of the mononuclear cells are represented by monocytes. The mononuclear cells obtained were absorbed in special cell culture media and incubated in a gasifying incubation cabinet at 37° C., a relative humidity of 98% and 5% relative air-CO2 content. […] To test the influence of the combinations used according to the invention on the thiol status of thiol-deficient immune cells, these cells were artificially thiol-depleted. This process was carried out using proven methods by cultivation in thiol-deficient media (RPMI 1603). Comparative cultures using complete media (RPMI) 1640) were used to define the best possible normal value under the culture conditions. […] Primarily non-fluorogenic CMFDA is thereby passively absorbed by the cell. By means of the chlormethyl group, there is a bonding to cytoplasmic thiol groups. […] The median fluorescence intensity of the specimen (10,000 cells) is directly proportional to the concentration of the intracellular thiol groups. […] The data are presented as the ratio of the cellular fluorescence intensity to the respective calibration particles (beads) that were analyzed simultaneously. […]
# [10] = system: peritoneal macrophages; test: Stability of intracellular thiol restitution in peritoneal macrophages in the dialysis model; details: after approximately 4 days in the dialysis model
# Description: as §1, with “combinations.” for “combinations. A similar result is apparent in the curves of the membrane-bound thiol expression illustrated in FIG. 7.”
smiles,measurement,setting,value
"C[C@H](CS)C(=O)N1CCC[C@H]1C(=O)O [Captopril, 1-[(2S)-3-mercapto-2-methylpropionyl]-L-prolin]",CD11c expression,[1],1.26 ± 0.24
same,CD15/69 co-expression,[1],1.69 ± 0.21
same,CD15 expression,[1],1.19 ± 0.14
same,Membrane-resistant thiol expression,[2]; length of culture 0 d,2.37 ± 0.45 mfiBeads/Ratio
same,Membrane-resistant thiol expression,[2]; length of culture 1 d,2.63 ± 0.39 mfiBeads/Ratio
same,Membrane-resistant thiol expression,[2]; length of culture 2 d,2.54 ± 0.41 mfiBeads/Ratio
same,Membrane-resistant thiol expression,[2]; length of culture 3 d,2.52 ± 0.38 mfiBeads/Ratio
same,Membrane-resistant thiol expression,[2]; length of culture 4 d,2.50 ± 0.41 mfiBeads/Ratio
same,Membrane-resistant thiol expression,[2]; length of culture 6 d,2.46 ± 0.50 mfiBeads/Ratio
same,Membrane-resistant thiol expression,[2]; length of culture 8 d,2.01 ± 0.39 mfiBeads/Ratio
same,Membrane-resistant thiol expression,[2]; length of culture 10 d,1.68 ± 0.29 mfiBeads/Ratio
same,Membrane-resistant thiol expression,[2]; length of culture 12 d,1.02 ± 0.51 mfiBeads/Ratio
same,Membrane-resistant thiol expression,[2]; length of culture 14 d,0.99 ± 0.46 mfiBeads/Ratio
same,CD11c/71 co-expression,[3],1.52 ± 0.16
O=C(O)CCCCC1CCSS1 (stereo not drawn) [α-lipoic acid],CD11c expression,[1],1.21 ± 0.11
same,CD15/69 co-expression,[1],1.09 ± 0.08
same,CD15 expression,[1],1.18 ± 0.16
same,Phagocytosis rate higher than that of the untreated control by a factor of,[4],1.85
same,Membrane-resistant thiol expression,[2]; length of culture 0 d,2.37 ± 0.45 mfiBeads/Ratio
same,Membrane-resistant thiol expression,[2]; length of culture 1 d,2.65 ± 0.39 mfiBeads/Ratio
same,Membrane-resistant thiol expression,[2]; length of culture 2 d,2.43 ± 0.52 mfiBeads/Ratio
same,Membrane-resistant thiol expression,[2]; length of culture 3 d,2.31 ± 0.36 mfiBeads/Ratio
same,Membrane-resistant thiol expression,[2]; length of culture 4 d,2.26 ± 0.20 mfiBeads/Ratio
same,Membrane-resistant thiol expression,[2]; length of culture 6 d,2.19 ± 0.13 mfiBeads/Ratio
same,Membrane-resistant thiol expression,[2]; length of culture 8 d,1.93 ± 0.20 mfiBeads/Ratio
same,Membrane-resistant thiol expression,[2]; length of culture 10 d,1.63 ± 0.16 mfiBeads/Ratio
same,Membrane-resistant thiol expression,[2]; length of culture 12 d,1.32 ± 0.21 mfiBeads/Ratio
same,Membrane-resistant thiol expression,[2]; length of culture 14 d,1.34 ± 0.20 mfiBeads/Ratio
same,"Effect on the activation index of T-lymphocytes (CD69, CD25, CD71; in words)",[5],slight improvement of the cellular activation
same,Effect on membrane-bound thiol expression of peritoneal macrophages (in words),[6],very clear effect
same,Effect on cellular thiol expression of peritoneal macrophages (in words),[7],increase of the cellular thiol expression
same,CD11c/71 co-expression,[3],1.08 ± 0.09
same,Membrane-bound thiol expression in the dialysis model (in words),[8],intermediary
same,Effect on the intracellular thiol deficit (in words),[9],not possible to achieve a complete compensation of the thiol deficit
same,Effectiveness relative to the combinations,[10],approximately 50%
"CCOC(=O)[C@H](CCc1ccccc1)NC(C)C(=O)N1CCCC1C(=O)O (stereo in doubt) [Enalapril, 1-{N-[(S)-1-ethoxycarbonyl-3-phenylpropyl]-L-alanyl}-L-prolin]",CD11c expression,[1],1.23 ± 0.22
same,CD15/69 co-expression,[1],1.19 ± 0.12
same,CD15 expression,[1],1.21 ± 0.22
same,Phagocytosis rate higher than that of the untreated control by a factor of,[4],1.53
same,"Effect on the activation index of T-lymphocytes (CD69, CD25, CD71; in words)",[5],equivalent to α-lipoic acid only in the case of the effectuation of the CD25 antigen
same,CD11c/71 co-expression,[3],1.10 ± 0.14
"Nc1c(Br)cc(Br)cc1CNC1CCC(O)CC1 (centres unmarked) [Ambroxol, hydrochloride]",CD11c expression,[1],1.01 ± 0.09
same,CD15 expression,[1],0.98 ± 0.13
same,Phagocytosis rate higher than that of the untreated control by a factor of,[4],1.35
same,"Effect on the activation index of T-lymphocytes (CD69, CD25, CD71; in words)",[5],does not have any influence on one of the three activation markers
same,Effect on cellular thiol expression of peritoneal macrophages (in words),[7],had no effect
same,CD11c/71 co-expression,[3],0.96 ± 0.1
